Consider two compounds from US20180311238A1, “Selective Agonist Of a6 Containing nAChRs” (Saniona A/S, priority 2017, published 2018).

In this experiment the test system is reserpine-induced tremors. Kind of experiment: Reserpine-induced tremors in rats (tremor monitor power spectra). Format: in vivo, rat. As to conditions: for effect on reserpine-induced tremors in pilot studies: rats, L-DOPA with benserazide. The source says:
Parkinson's disease is associated with severe dopamine deficiency caused by neurodegeneration of dopaminergic cell bodies residing in Substantia Nigra pars compacta. As alpha6 nAChRs are enriched in the nigrostriatal dopamine pathway, activating this receptor may ameliorate symptoms in nigro-striatal dopamine deficiency models. Reserpine injections to rodents result in depletion of monoamines in the nigro-striatal dopamine pathway, resulting in catalepsy and tremors. Both behaviours can be quantified using dedicated tremor boxes.
Six groups of male Sprague Dawley rats (250-300 grams) were subjected to the following treatment schedules, and effects on power spectra, assessed in automated tremor monitors were evaluated for 30 minutes: • Vehicle+vehicle • Vehicle+reserpine (1 mg/kg) • 9-Methyl-3-pyridin-3-yl-3,9-diaza-bicyclo[3.3.1]nonane (0.1 mg/kg)+reserpine (1 mg/kg) • 9-Methyl-3-pyridin-3-yl-3,9-diaza-bicyclo[3.3.1]nonane (1.0 mg/kg)+reserpine (1 mg/kg) • L-DOPA (100 mg/kg)+reserpine (1 mg/kg) • 9-Methyl-3-pyridin-3-yl-3,9-diaza-bicyclo[3.3.1]nonane (1.0 mg/kg)+L-DOPA (100 mg/kg)+reserpine (1 mg/kg)
Reserpine was pre-treated i.v. 60 minutes prior to test start in a dose volume of 2 ml/kg. 9-Methyl-3-pyridin-3-yl-3,9-diaza-bicyclo[3.3.1]nonane was pre-treated s.c. 45 minutes prior to test start in a dose volume of 1 ml/kg. The dose of 9-methyl-3-pyridin-3-yl-3,9-diaza-bicyclo[3.3.1]nonane was based on 3H-epibatidin displacement studies showing half maximal displacement of specific binding of 3H-epibatidin in doses equaling 0.15 mg/kg in rats. L-DOPA was pre-treated i.p. 30 minutes prior to test start in a dose volume of 5 ml/kg. […] All animals dosed with L-DOPA was also dosed with the peripherally acting decarboxylase inhibitor Benserazide to prevent the peripheral break down of L-DOPA (benserazide: 50 mg/kg, s.c., 30 min. prior to test start in a dose volume of 1 ml/kg).

[1] abbreviates: reserpine 1 mg/kg i.v., compound 0.1 and 1.0 mg/kg s.c., L-DOPA 100 mg/kg i.p. + benserazide.

Take `N[C@@H](Cc1ccc(O)c(O)c1)C(=O)O` [L-DOPA]: the “activity per se of the L-DOPA dose in pilot studies” value (pilot studies, L-DOPA 100 mg/kg i.p.) was “marginal activity per se”. Besides, where the note is “pilot studies”, the “effect on reserpine-induced tremors in pilot studies” value is “reverse reserpine-induced tremors”. The “effect on reserpine-induced tremors, AUC 20-43 Hz” value (reserpine 1 mg/kg i.v., L-DOPA 100 mg/kg i.p. + benserazide) is recorded as “without exerting any effects”. Further, under setting [1], the “effect on reserpine-induced tremors, AUC 40-63 Hz” value was “reduces reserpine-induced tremors” and the “reversal of reserpine-induced reduction of low frequency movements (catalepsy), AUC 3-13 Hz” value was “Neither threshold dose of L-DOPA, nor 9-methyl-3-pyridin-3-yl-3,9-diaza-bicyclo[3.3.1]nonane or the combination of the two, was able to reverse this reduction”.
As to `CN1CCc2cccc3c2[C@H]1Cc1ccc(O)c(O)c1-3` [apomorphine], the “effect on reserpine-induced tremors in pilot studies” value (pilot studies) is “reverse reserpine-induced tremors”.
